Activity calls are given as the source filed them. The rule behind the calls is not given here.
Experiments:
[1] = test system: Mus musculus; test: Anticonvulsant activity in Carworth farms No.1 albino mouse assessed as protection against maximum electroshock at 30 mg/kg, ip measured after 0.5 hrs; assay type: functional, organism-based; parameters: dose 30 mg/kg
[2] = test system: Mus musculus; test: Anticonvulsant activity in Carworth farms No.1 albino mouse assessed as protection against maximum electroshock at 100 mg/kg, ip measured after 0.5 hrs; assay type: functional, organism-based; parameters: dose 100 mg/kg
[3] = test system: Mus musculus; test: Anticonvulsant activity in Carworth farms No.1 albino mouse assessed as protection against maximum electroshock at 300 mg/kg, ip measured after 0.5 hrs; assay type: functional, organism-based; parameters: dose 300 mg/kg
[4] = test system: Mus musculus; test: Anticonvulsant activity in Carworth farms No.1 albino mouse assessed as protection against maximum electroshock at 30 mg/kg, ip measured after 4 hrs; assay type: functional, organism-based; parameters: dose 30 mg/kg
[5] = test system: Mus musculus; test: Anticonvulsant activity in Carworth farms No.1 albino mouse assessed as protection against maximum electroshock at 100 mg/kg, ip measured after 4 hrs; assay type: functional, organism-based; parameters: dose 100 mg/kg
[6] = test system: Mus musculus; test: Anticonvulsant activity in Carworth farms No.1 albino mouse assessed as protection against maximum electroshock at 300 mg/kg, ip measured after 4 hrs; assay type: functional, organism-based; parameters: dose 300 mg/kg
[7] = test system: Mus musculus; test: Anticonvulsant activity in Carworth farms No.1 albino mouse assessed as protection against subcutaneous metrazole-induced seizures at 30 mg/kg, ip measured after 0.5 hrs; assay type: functional, organism-based; parameters: dose 30 mg/kg
[8] = test system: Mus musculus; test: Anticonvulsant activity in Carworth farms No.1 albino mouse assessed as protection against subcutaneous metrazole-induced seizures at 100 mg/kg, ip measured after 0.5 hrs; assay type: functional, organism-based; parameters: dose 100 mg/kg
[9] = test system: Mus musculus; test: Anticonvulsant activity in Carworth farms No.1 albino mouse assessed as protection against subcutaneous metrazole-induced seizures at 300 mg/kg, ip measured after 0.5 hrs; assay type: functional, organism-based; parameters: dose 300 mg/kg
[10] = test system: Mus musculus; test: Anticonvulsant activity in Carworth farms No.1 albino mouse assessed as protection against subcutaneous metrazole-induced seizures at 30 mg/kg, ip measured after 4 hrs; assay type: functional, organism-based; parameters: dose 30 mg/kg
[11] = test system: Mus musculus; test: Anticonvulsant activity in Carworth farms No.1 albino mouse assessed as protection against subcutaneous metrazole-induced seizures at 100 mg/kg, ip measured after 4 hrs; assay type: functional, organism-based; parameters: dose 100 mg/kg
[12] = test system: Mus musculus; test: Anticonvulsant activity in Carworth farms No.1 albino mouse assessed as protection against subcutaneous metrazole-induced seizures at 300 mg/kg, ip measured after 4 hrs; assay type: functional, organism-based; parameters: dose 300 mg/kg
[13] = test system: Mus musculus; test: Neurotoxicity in Carworth farms No.1 albino mouse assessed as neurological impairment at 30 mg/kg, ip measured after 0.5 hrs; assay type: toxicity, organism-based; parameters: dose 30 mg/kg, route intraperitoneal; conditions: in vivo
[14] = test system: Mus musculus; test: Neurotoxicity in Carworth farms No.1 albino mouse assessed as neurological impairment at 100 mg/kg, ip measured after 0.5 hrs; assay type: toxicity, organism-based; parameters: dose 100 mg/kg, route intraperitoneal; conditions: in vivo
[15] = test system: Mus musculus; test: Neurotoxicity in Carworth farms No.1 albino mouse assessed as neurological impairment at 30 mg/kg, ip measured after 4 hrs; assay type: toxicity, organism-based; parameters: dose 30 mg/kg, route intraperitoneal; conditions: in vivo
[16] = test system: Mus musculus; test: Neurotoxicity in Carworth farms No.1 albino mouse assessed as neurological impairment at 100 mg/kg, ip measured after 4 hrs; assay type: toxicity, organism-based; parameters: dose 100 mg/kg, route intraperitoneal; conditions: in vivo
[17] = test system: Mus musculus; test: Neurotoxicity in Carworth farms No.1 albino mouse assessed as neurological impairment at 300 mg/kg, ip measured after 4 hrs; assay type: toxicity, organism-based; parameters: dose 300 mg/kg, route intraperitoneal; conditions: in vivo
[18] = test system: Mus musculus; test: Neurotoxicity in Carworth farms No.1 albino mouse assessed as inability to grasp rotarod at 300 mg/kg, ip measured after 0.5 hrs; assay type: toxicity, organism-based; parameters: dose 300 mg/kg, route intraperitoneal; conditions: in vivo
[19] = test system: Mus musculus; test: Anticonvulsant activity in ip dosed Carworth farms No.1 albino mouse assessed as protection against maximum electroshock; assay type: functional
[20] = test system: Mus musculus; test: Anticonvulsant activity in ip dosed Carworth farms No.1 albino mouse assessed as protection against subcutaneous metrazole-induced seizures; assay type: functional
[21] = Neurotoxicity in ip dosed Carworth farms No.1 albino mouse assessed as inability to grasp rotarod measured after 0.25 hrs; assay type: toxicity, organism-based; conditions: in vivo
[22] = test system: Rattus norvegicus; test: Anticonvulsant activity in Sprague-Dawley rat assessed as protection against maximum electroshock at 30 mg/kg, po measured after 0.25 hrs; assay type: functional, organism-based; parameters: dose 30 mg/kg
[23] = test system: Rattus norvegicus; test: Anticonvulsant activity in Sprague-Dawley rat assessed as protection against maximum electroshock at 30 mg/kg, po measured after 0.5 hrs; assay type: functional, organism-based; parameters: dose 30 mg/kg
[24] = test system: Rattus norvegicus; test: Anticonvulsant activity in Sprague-Dawley rat assessed as protection against maximum electroshock at 30 mg/kg, po measured after 1 hr; assay type: functional, organism-based; parameters: dose 30 mg/kg
[25] = test system: Rattus norvegicus; test: Anticonvulsant activity in Sprague-Dawley rat assessed as protection against maximum electroshock at 30 mg/kg, po measured after 2 hrs; assay type: functional, organism-based; parameters: dose 30 mg/kg
[26] = test system: Rattus norvegicus; test: Anticonvulsant activity in Sprague-Dawley rat assessed as protection against maximum electroshock at 30 mg/kg, po measured after 4 hrs; assay type: functional, organism-based; parameters: dose 30 mg/kg
[27] = test system: Rattus norvegicus; test: Neurotoxicity in Sprague-Dawley rat assessed as neurological impairment at 30 mg/kg, po measured after 0.25 hrs; assay type: toxicity, organism-based; parameters: dose 30 mg/kg, route oral; conditions: in vivo
[28] = test system: Rattus norvegicus; test: Neurotoxicity in Sprague-Dawley rat assessed as neurological impairment at 30 mg/kg, po measured after 0.5 hrs; assay type: toxicity, organism-based; parameters: dose 30 mg/kg, route oral; conditions: in vivo
[29] = test system: Rattus norvegicus; test: Neurotoxicity in Sprague-Dawley rat assessed as neurological impairment at 30 mg/kg, po measured after 1 hr; assay type: toxicity, organism-based; parameters: dose 30 mg/kg, route oral; conditions: in vivo
[30] = test system: Rattus norvegicus; test: Neurotoxicity in Sprague-Dawley rat assessed as neurological impairment at 30 mg/kg, po measured after 2 hrs; assay type: toxicity, organism-based; parameters: dose 30 mg/kg, route oral; conditions: in vivo
[31] = test system: Rattus norvegicus; test: Neurotoxicity in Sprague-Dawley rat assessed as neurological impairment at 30 mg/kg, po measured after 4 hrs; assay type: toxicity, organism-based; parameters: dose 30 mg/kg, route oral; conditions: in vivo
[32] = test system: Mus musculus; test: Anticonvulsant activity in Carworth farms No.1 albino mouse assessed as protection against 6 Hz electric current-induced seizure at 100 mg/kg, ip measured after 0.25 hrs; assay type: functional, organism-based; parameters: dose 100 mg/kg
[33] = test system: Mus musculus; test: Anticonvulsant activity in Carworth farms No.1 albino mouse assessed as protection against 6 Hz electric current-induced seizure at 100 mg/kg, ip measured after 0.5 hrs; assay type: functional, organism-based; parameters: dose 100 mg/kg
[34] = test system: Mus musculus; test: Anticonvulsant activity in Carworth farms No.1 albino mouse assessed as protection against 6 Hz electric current-induced seizure at 100 mg/kg, ip measured after 1 hrs; assay type: functional, organism-based; parameters: dose 100 mg/kg
[35] = test system: Mus musculus; test: Anticonvulsant activity in Carworth farms No.1 albino mouse assessed as protection against 6 Hz electric current-induced seizure at 100 mg/kg, ip measured after 2 hrs; assay type: functional, organism-based; parameters: dose 100 mg/kg
[36] = test system: Mus musculus; test: Anticonvulsant activity in Carworth farms No.1 albino mouse assessed as protection against 6 Hz electric current-induced seizure at 100 mg/kg, ip measured after 4 hrs; assay type: functional, organism-based; parameters: dose 100 mg/kg
[37] = test system: Mus musculus; test: Neurotoxicity in Carworth farms No.1 albino mouse assessed as neurological impairment at 100 mg/kg, ip measured after 0.25 hrs; assay type: toxicity, organism-based; parameters: dose 100 mg/kg, route intraperitoneal; conditions: in vivo
[38] = test system: Mus musculus; test: Neurotoxicity in Carworth farms No.1 albino mouse assessed as neurological impairment at 100 mg/kg, ip measured after 1 hr; assay type: toxicity, organism-based; parameters: dose 100 mg/kg, route intraperitoneal; conditions: in vivo
[39] = test system: Mus musculus; test: Neurotoxicity in Carworth farms No.1 albino mouse assessed as neurological impairment at 100 mg/kg, ip measured after 2 hr; assay type: toxicity, organism-based; parameters: dose 100 mg/kg, route intraperitoneal; conditions: in vivo
[40] = test system: Mus musculus; test: Anticonvulsant activity in ip dosed Carworth farms No.1 albino mouse assessed as protection against 6 Hz electric current-induced seizure measured after 0.25 hrs; assay type: functional
[41] = test system: Rattus norvegicus; test: Anticonvulsant activity in Sprague-Dawley rat assessed as protection against pilocarpine-induced status at 600 mg/kg, ip measured after 0.5 hrs; assay type: functional, organism-based; parameters: dose 600 mg/kg
[42] = test system: Rattus norvegicus; test: Toxicity in Sprague-Dawley rat assessed as mortality at 600 mg/kg, ip measured after 0.5 hrs; assay type: organism-based; parameters: dose 600 mg/kg, route intraperitoneal; conditions: in vivo
[43] = test system: Rattus norvegicus; test: Toxicity in Sprague-Dawley rat assessed as body weight change in unprotected animal at 600 mg/kg, ip measured after 0.5 hrs; assay type: organism-based; parameters: dose 600 mg/kg, route intraperitoneal; conditions: in vivo
[44] = test system: Rattus norvegicus; test: Toxicity in Sprague-Dawley rat assessed as body weight change in protected animals at 600 mg/kg, ip measured after 0.5 hrs; assay type: organism-based; parameters: dose 600 mg/kg, route intraperitoneal; conditions: in vivo
[45] = organism: Mus musculus; test: Anticonvulsant activity in maximum electroshock-induced Carworth farms No.1 albino mouse assessed as time of peak effect; assay type: functional
[46] = organism: Mus musculus; test: Anticonvulsant activity in electric shock-induced Carworth farms No.1 albino mouse assessed as time of peak effect; assay type: functional

SMILES: O=C1NC(=O)[C@H](c2ccccc2)N2CCCC[C@H]12
- Activity [1]: inactive
- Activity [2]: Active
- Activity [3]: Active
- Activity [4]: inactive
- Activity [5]: inactive
- Activity [6]: inactive
- Activity [7]: inactive
- Activity [8]: inactive
- Activity [9]: Active
- Activity [10]: inactive
- Activity [11]: inactive
- Activity [12]: inactive
- Activity [13]: Non-toxic
- Activity [14]: Toxic
- Activity [15]: Non-toxic
- Activity [16]: Non-toxic
- Activity [17]: Non-toxic
- Activity [18]: Toxic
- ED50 [19]: 95.7 mg/kg
- ED50 [20]: 99.2 mg/kg
- TD50 at 0.25 h [21]: 151 mg/kg
- Activity [22]: inactive
- Activity [23]: inactive
- Activity [24]: inactive
- Activity [25]: inactive
- Activity [26]: inactive
- Activity [27]: Non-toxic
- Activity [28]: Non-toxic
- Activity [29]: Non-toxic
- Activity [30]: Non-toxic
- Activity [31]: Non-toxic
- Activity [32]: Active
- Activity [33]: Active
- Activity [34]: inactive
- Activity [35]: inactive
- Activity [36]: inactive
- Activity [37]: Non-toxic
- Activity [38]: Non-toxic
- Activity [39]: Non-toxic
- ED50 [40]: 32.3 mg/kg
- Activity [41]: inactive
- Activity [42]: Toxic
- Activity [43]: -31 g
- Activity [44]: -30 g
- Time [45]: 0.5 h
- Time [46]: 0.25 h
